Reference: ChEMBL document CHEMBL3044779, “The action of herbicides on fatty acid biosynthesis and elongation in barley and cucumber” (Pest Manag Sci, 2010)
Calls of active or inactive are those of the source. No cut-off for these calls is given here.

How the values were obtained:
Hordeum vulgare [1] = assay: Inhibition of fatty acid synthesis in Hordeum vulgare (barley) assessed as inhibition of [14C]acetate incoporation in total fatty acids at 30 uM measured as total disintegration per g of fresh weight after 3 hr by liquid scintillation counting (reference value: 5.7 +/- 0.5 10^6 dpm x 10'6 g'1 fresh wt); assay type: functional
Cucumis sativus [2] = assay: Inhibition of fatty acid synthesis in Cucumis sativus (cucumber) using [14C]malonate assessed as inhibition of [14C]-labeled 24C fatty acid production at 30 uM after 3 hr by liquid scintillation counting; assay type: functional, organism-based
Hordeum vulgare [3] = assay: Inhibition of fatty acid synthesis in Hordeum vulgare (barley) using [14C]malonate assessed as inhibition of [14C]-labeled 24C fatty acid production at 30 uM after 3 hr by liquid scintillation counting; assay type: functional, organism-based
Cucumis sativus [4] = assay: Inhibition of fatty acid synthesis in Cucumis sativus (cucumber) using [14C]malonate assessed as inhibition of [14C]-labeled 22C fatty acid production at 30 uM after 3 hr by liquid scintillation counting; assay type: functional, organism-based
Hordeum vulgare [5] = assay: Inhibition of fatty acid synthesis in Hordeum vulgare (barley) using [14C]malonate assessed as inhibition of [14C]-labeled 22C fatty acid production at 30 uM after 3 hr by liquid scintillation counting; assay type: functional, organism-based
Cucumis sativus [6] = assay: Inhibition of fatty acid synthesis in Cucumis sativus (cucumber) using [14C]malonate assessed as inhibition of [14C]-labeled 18C fatty acid production at 30 uM after 3 hr by liquid scintillation counting; assay type: functional, organism-based
Hordeum vulgare [7] = assay: Inhibition of fatty acid synthesis in Hordeum vulgare (barley) using [14C]malonate assessed as inhibition of [14C]-labeled 18C fatty acid production at 30 uM after 3 hr by liquid scintillation counting; assay type: functional, organism-based
Hordeum vulgare [8] = assay: Inhibition of fatty acid synthesis in Hordeum vulgare (barley) using [14C]acetate assessed as [14C]-labeled 22C fatty acid level at 30 uM after 3 hr by liquid scintillation counting (reference value: 5.5 +/- 0.2%); assay type: functional; parameters: scale not given: the % may be the effect or the level left
Cucumis sativus [9] = assay: Inhibition of fatty acid synthesis in Cucumis sativus (cucumber) using [14C]acetate assessed as [14C]-labeled 20C fatty acid level at 30 uM after 3 hr by liquid scintillation counting (reference value: 5.1 +/- 0.7%); assay type: functional; parameters: scale not given: the % may be the effect or the level left
Cucumis sativus [10] = assay: Inhibition of fatty acid synthesis in Cucumis sativus (cucumber) using [14C]malonate assessed as inhibition of [14C]-labeled 20C fatty acid production at 30 uM after 3 hr by liquid scintillation counting; assay type: functional, organism-based
Hordeum vulgare [11] = assay: Inhibition of fatty acid synthesis in Hordeum vulgare (barley) using [14C]malonate assessed as inhibition of [14C]-labeled 20C fatty acid production at 30 uM after 3 hr by liquid scintillation counting; assay type: functional, organism-based
Cucumis sativus [12] = assay: Inhibition of fatty acid synthesis in Cucumis sativus (cucumber) using [14C]malonate assessed as inhibition of [14C]-labeled 16C fatty acid production at 30 uM after 3 hr by liquid scintillation counting; assay type: functional, organism-based
Hordeum vulgare [13] = assay: Inhibition of fatty acid synthesis in Hordeum vulgare (barley) using [14C]malonate assessed as inhibition of [14C]-labeled 16C fatty acid production at 30 uM after 3 hr by liquid scintillation counting; assay type: functional, organism-based
Cucumis sativus [14] = assay: Inhibition of fatty acid synthesis in Cucumis sativus (cucumber) assessed as inhibition of [14C]malonate incoporation in total fatty acids at 30 uM measured after 3 hr by liquid scintillation counting; assay type: functional, organism-based
Hordeum vulgare [15] = assay: Inhibition of fatty acid synthesis in Hordeum vulgare (barley) assessed as inhibition of [14C]malonate incoporation in total fatty acids at 30 uM measured after 3 hr by liquid scintillation counting; assay type: functional, organism-based
Cucumis sativus [16] = assay: Inhibition of fatty acid synthesis in Cucumis sativus (cucumber) using [14C]acetate assessed as [14C]-labeled 24C fatty acid level at 30 uM after 3 hr by liquid scintillation counting (reference value: 6.5 +/- 1%); assay type: functional; parameters: scale not given: the % may be the effect or the level left
Hordeum vulgare [17] = assay: Inhibition of fatty acid synthesis in Hordeum vulgare (barley) using [14C]acetate assessed as [14C]-labeled 20C fatty acid level at 30 uM after 3 hr by liquid scintillation counting (reference value: 4.7 +/- 1.6%); assay type: functional; parameters: scale not given: the % may be the effect or the level left
Cucumis sativus [18] = assay: Inhibition of fatty acid synthesis in Cucumis sativus (cucumber) using [14C]acetate assessed as [14C]-labeled 18C fatty acid level at 30 uM after 3 hr by liquid scintillation counting (reference value: 41.2 +/- 1.1%); assay type: functional; parameters: scale not given: the % may be the effect or the level left
Hordeum vulgare [19] = assay: Inhibition of fatty acid synthesis in Hordeum vulgare (barley) using [14C]acetate assessed as [14C]-labeled 18C fatty acid level at 30 uM after 3 hr by liquid scintillation counting (reference value: 60.3 +/- 1.3%); assay type: functional; parameters: scale not given: the % may be the effect or the level left
Cucumis sativus [20] = assay: Inhibition of fatty acid synthesis in Cucumis sativus (cucumber) using [14C]acetate assessed as [14C]-labeled 16C fatty acid level at 30 uM after 3 hr by liquid scintillation counting (reference value: 29.2 +/- 3.5%); assay type: functional; parameters: scale not given: the % may be the effect or the level left
Hordeum vulgare [21] = assay: Inhibition of fatty acid synthesis in Hordeum vulgare (barley) using [14C]acetate assessed as [14C]-labeled 16C fatty acid level at 30 uM after 3 hr by liquid scintillation counting (reference value: 29.5 +/- 1.3%); assay type: functional; parameters: scale not given: the % may be the effect or the level left
Cucumis sativus [22] = assay: Inhibition of fatty acid synthesis in Cucumis sativus (cucumber) assessed as inhibition of [14C]acetate incoporation in total fatty acids at 30 uM measured as total disintegration per g of fresh weight after 3 hr by liquid scintillation counting (reference value: 6.4 +/- 1.2 dpm x 10^6 g'1 fresh wt); assay type: functional
Cucumis sativus [23] = assay: Inhibition of fatty acid synthesis in Cucumis sativus (cucumber) using [14C]acetate assessed as [14C]-labeled 22C fatty acid level at 30 uM after 3 hr by liquid scintillation counting (reference value: 17.9 +/- 2.5%); assay type: functional; parameters: scale not given: the % may be the effect or the level left

In the case of `CCN(CC)C(=O)C(C)Oc1cccc2ccccc12` (stereo not drawn) [NAPROPAMIDE], the Activity (Hordeum vulgare [1]) was 5.2 ×10⁶ dpm, the inhibition (Cucumis sativus [2]) was “inactive” and the inhibition (Hordeum vulgare [3]) was “inactive”. For the same molecule, the inhibition (Cucumis sativus [4]) was “inactive”, the inhibition (Hordeum vulgare [5]) was “inactive” and the inhibition (Cucumis sativus [6]) was “inactive”. The inhibition (Hordeum vulgare [7]) was “inactive”, the Activity (Hordeum vulgare [8]) was 6.9% and the Activity (Cucumis sativus [9]) was 5.5%. The inhibition (Cucumis sativus [10]) was “inactive”, the inhibition (Hordeum vulgare [11]) was “inactive” and the inhibition (Cucumis sativus [12]) was “inactive”. For the same molecule, the inhibition (Hordeum vulgare [13]) was “inactive”, the inhibition (Cucumis sativus [14]) was “inactive” and the inhibition (Hordeum vulgare [15]) was “inactive”. For the same molecule, the Activity (Cucumis sativus [16]) was 5.9%, the Activity (Hordeum vulgare [17]) was 7.6% and the Activity (Cucumis sativus [18]) was 43.1%. It also gave an Activity (Hordeum vulgare [19]) of 66.9%, an Activity (Cucumis sativus [20]) of 26.5% and an Activity (Hordeum vulgare [21]) of 18.7%. For the same molecule, the Activity (Cucumis sativus [22]) was 6.2 ×10⁶ dpm and the Activity (Cucumis sativus [23]) was 19%.
